Several values for one entry are separate records, joined by “and”; a condition that tells them apart may be missing. Equal values may be shown once.
Columns and labels:
[1] = Plasma PK modelling (gamma counting, bi-exponential fit), cycles 1 and 3; assay type: in vivo, human
Method: PK plasma samples were collected at pre-Infusion, 1 h, 4 h, 24 h, 48 h, and 168 h, and counted for radioactivity. Blood samples were first centrifuged to extract plasma, and then the radioactivity in plasma was counted in a gamma counter.
Whole blood samples were collected as detailed in the protocol Schedule of Events i.e. pre-injection, and then at 1 h, 4 h, 24 h, 48 h, and 168 h post-injection. The samples were first centrifuged to separate plasma, and the radioactivity in the plasma was then measured using a gamma counter. Plasma concentrations were subsequently fitted with a bi-exponential function to derive outcome parameters such as the half-life and clearance rate of the radiopharmaceutical in the plasma.
Gamma-counted plasma samples were quality controlled using the same ^177Lu reference standard by measuring 0.5 ml of the 100 mL in the saline bag. For each patient, triplicates were made and measured right before all plasma samples were counted. A long-lived isotope was also counted to ensure that the protocol was properly followed by each site. Similarly to the imaging standard, when the gamma counter efficiency factor differed by more than 10% compared to that at site set-up, an investigation was launched to determine the cause of this variation, and if it reflected a difference in data acquisition.
Plasma data was fitted with a bi-exponential curve.
Blood samples were obtained for 15 out of 16 patients at cycle 3. Patients 12-004 had blood taken only at the 24 h timepoint and, therefore, was not included in the plasma PK analysis. Consistent with Cycle 1, the time-course of plasma concentrations was similar among the patients. The ranges of PK parameters obtained at cycle 3 were similar to those from Cycle 1 data (Table 6). Cycle 3 PK plasma modeling results (n=15)

[2] = tested on: prostate cancer; details: in vivo; cited from earlier work
[3] = Example 10 dosimetry, 27 mCRPC patients, planar whole-body conjugate imaging and SPECT/CT, MIRD method; assay type: in vivo, human
Method: Radiation dosimetry of [^177Lu]Lu-PSMA-I&T was calculated in 27 patients with mCRPC based on biodistribution data from planar whole-body conjugate imaging at 1, 24, 48, 72, and 168 hours and, for 7 of them, SPECT/CT imaging at 48-72 hours post injection of their first cycle of [^177Lu]Lu-PSMA-I&T (6.8±10% GBq).
Regions of interest were drawn on the planar images.
Volumes of interest were constructed on the SPECT and CT
For each subject, kinetic data were modeled to determine
normalized number of disintegrations in organs and tissues, from which the absorbed dose estimates were computed using the MIRD method.

[4] = numerous studies; cited from earlier work
[5] = Cycle 1, patient 42-030 excluded
[6] = 27 patients, first cycle, 6.8 GBq, planar imaging
[7] = Bladder Wall, 27 patients, first cycle
[8] = Heart Wall, 27 patients, first cycle
[9] = Kidneys, 27 patients, first cycle
[10] = Lacrimal Glands, 27 patients, first cycle
[11] = Left Colon, 27 patients, first cycle
[12] = Liver, 27 patients, first cycle
[13] = Red Marrow, 27 patients, first cycle
[14] = Salivary Glands, 27 patients, first cycle
[15] = Spleen, 27 patients, first cycle
[16] = Thyroid, 27 patients, first cycle
[17] = cumulative administered activity of 27.2 GBq, four cycles of 6.8 GBq

O=C([O-])CC[C@H](NC(=O)N[C@@H](CCCCNC(=O)CCCCCCC(=O)NCCCC[C@@H](NC(=O)[C@@H](Cc1ccccc1)NC(=O)[C@@H](Cc1ccc(O)c(I)c1)NC(=O)CC[C@H](C(=O)[O-])N1CCN(CC(=O)[O-])CCN(CC(=O)[O-])CCN(CC(=O)[O-])CC1)C(=O)[O-])C(=O)[O-])C(=O)[O-].[177Lu+3].[H+].[H+].[H+].[H+].[H+] [^177Lu-PSMA I&T, (3S,7S,26R,29R,32R,37R)-29-benzyl-32-(4-hydroxy-3-iodobenzyl)-5,13,20,28,31,34-hexaoxo-37-(4,7,10-tris(carboxymethyl)-1,4,7,10-tetraazacyclododecan-1-yl)-4,6,12,21,27,30,33-heptaazaheptatriacontane-1,3,7,26,37-pentacarboxylic acid; lutetium-177 (III)]
Peak Concentration Value ([1]; Cycle 1, individual patients): 0.05 fIA/L (4×) and 0.04 fIA/L and 0.03 fIA/L | Time of Peak Concentration ([1]; Cycle 1, individual patients, time of first post-administration sample): 56.00 min and 47.00 min and 53.00 min and 60.00 min (6×) and 51.00 min (2×) and 58.00 min and 61.00 min (2×) and 50.00 min and 63.00 min and 57.00 min and 55.00 min and 52.00 min (2×) and 68.00 min and 71.00 min and 65.00 min and 33.00 min and 40.00 min and 69.00 min | AUC Total, Mean [1, 5]: 22.77 fIA/L × min | AUC Total, max [1, 5]: 37.86 fIA/L × min | AUC Total, median [1, 5]: 20.84 fIA/L × min | AUC Total, min [1, 5]: 3.07 fIA/L × min | Peak Concentration Value, Mean [1, 5]: 0.04 fIA/L | Peak Concentration Value, max [1, 5]: 0.07 fIA/L | Peak Concentration Value, median [1, 5]: 0.04 fIA/L | Peak Concentration Value, min [1, 5]: 0.01 fIA/L | Time of Peak Concentration [1, 5]: 33.00 min | Time of Peak Concentration, median [1, 5]: 59.00 min | Vd, Mean [1, 5]: 234.64 L | Vd, max [1, 5]: 1365.03 L | Vd, median [1, 5]: 157.12 L | Vd, min [1, 5]: 54.60 L | Time of Peak Concentration ([1]; cycle 3, max (n=15)): 68.00 min | Time of Peak Concentration ([1]; cycle 3, median (n=15)): 60.00 min | Time of Peak Concentration ([1]; cycle 3, min (n=15)): 55.00 min | adverse effects [2]: mainly transient adverse effects | absorbed dose, kidneys [3, 6]: 0.73 Gy/GBq | absorbed dose, lacrimal glands [3, 6]: 1.2 Gy/GBq | average dose, red marrow [3, 6]: 0.034 Gy/GBq | average dose, salivary glands [3, 6]: 0.34 Gy/GBq | dose estimate, Max [3, 7]: 0.36 mGy/MBq or Gy/GBq | dose estimate, Mean [3, 7]: 0.33 mGy/MBq or Gy/GBq | dose estimate, Min [3, 7]: 0.14 mGy/MBq or Gy/GBq | Absorbed Dose, Mean ([3]; Bladder, SPLASH): 0.33 Gy/GBq | Absorbed Dose, Mean ([3]; Bone Marrow, SPLASH): 0.034 Gy/GBq | dose estimate, Max [3, 8]: 0.15 mGy/MBq or Gy/GBq | dose estimate, Mean [3, 8]: 0.036 mGy/MBq or Gy/GBq | dose estimate, Min [3, 8]: 0.017 mGy/MBq or Gy/GBq | dose estimate, Mean ([3]; Heart Wall, Splash): 0.04 Gy/GBq | Absorbed Dose, Mean ([3]; Heart, SPLASH): 0.036 Gy/GBq | dose estimate, Max [3, 9]: 1.8 mGy/MBq or Gy/GBq | dose estimate, Mean [3, 9]: 0.73 mGy/MBq or Gy/GBq | dose estimate, Min [3, 9]: 0.22 mGy/MBq or Gy/GBq | Absorbed Dose, Mean ([3]; Kidneys, Splash): 0.73 Gy/GBq | dose estimate, Mean ([3]; Kidneys, Splash): 0.73 Gy/GBq | dose estimate, Max [3, 10]: 6.7 mGy/MBq or Gy/GBq | dose estimate, Mean [3, 10]: 1.2 mGy/MBq or Gy/GBq | dose estimate, Min [3, 10]: 0.38 mGy/MBq or Gy/GBq | Absorbed Dose, Mean ([3]; Lacrimal Glands, SPLASH): 1.2 Gy/GBq | dose estimate, Mean ([3]; Lacrimal gland, Splash): 1.20 Gy/GBq | dose estimate, Max [3, 11]: 1.5 mGy/MBq or Gy/GBq | dose estimate, Mean [3, 11]: 0.52 mGy/MBq or Gy/GBq | dose estimate, Min [3, 11]: 0.013 mGy/MBq or Gy/GBq | Absorbed Dose, Mean ([3]; Left colon, Splash): 0.52 Gy/GBq | dose estimate, Mean ([3]; Left colon, Splash): 0.52 Gy/GBq | dose estimate, Max [3, 12]: 0.24 mGy/MBq or Gy/GBq | dose estimate, Mean [3, 12]: 0.051 mGy/MBq or Gy/GBq | dose estimate, Min [3, 12]: 0.025 mGy/MBq or Gy/GBq | Absorbed Dose, Mean ([3]; Liver, Splash): 0.051 Gy/GBq | dose estimate, Mean ([3]; Liver, Splash): 0.051 Gy/GBq | dose estimate, Max [3, 13]: 0.11 mGy/MBq or Gy/GBq | dose estimate, Mean [3, 13]: 0.034 mGy/MBq or Gy/GBq | dose estimate, Min [3, 13]: 0.014 mGy/MBq or Gy/GBq | dose estimate, Mean ([3]; Red Marrow, Splash): 0.03 Gy/GBq | dose estimate, Max [3, 14]: 1.5 mGy/MBq or Gy/GBq | dose estimate, Mean [3, 14]: 0.34 mGy/MBq or Gy/GBq | dose estimate, Min [3, 14]: 0.14 mGy/MBq or Gy/GBq | Absorbed Dose, Mean ([3]; Salivary glands, Splash): 0.34 Gy/GBq | dose estimate, Mean ([3]; Salivary glands, Splash): 0.34 Gy/GBq | dose estimate, Max [3, 15]: 0.80 mGy/MBq or Gy/GBq | dose estimate, Mean [3, 15]: 0.16 mGy/MBq or Gy/GBq | dose estimate, Min [3, 15]: 0.022 mGy/MBq or Gy/GBq | Absorbed Dose, Mean ([3]; Spleen, Splash): 0.16 Gy/GBq | dose estimate, Mean ([3]; Spleen, Splash): 0.16 Gy/GBq | dose estimate, Max [3, 16]: 0.77 mGy/MBq or Gy/GBq | dose estimate, Mean [3, 16]: 0.17 mGy/MBq or Gy/GBq | dose estimate, Min [3, 16]: 0.011 mGy/MBq or Gy/GBq | Absorbed Dose, Mean ([3]; Thyroid, Splash): 0.17 Gy/GBq | dose estimate, Mean ([3]; Thyroid, Splash): 0.17 Gy/GBq | dose estimate, Mean ([3]; Urinary bladder wall, Splash): 0.33 Gy/GBq | cumulative absorbed dose, kidneys [3, 17]: 19.9 Gy | cumulative absorbed dose, red marrow [3, 17]: 0.91 Gy | safety and tolerability [4]: safe and well tolerated
